Values quoted from earlier work as cited in patent US20260373193A1, “CARCINOGENESIS REDUCTION WITH PENTAAZA MACROCYLIC RING COMPLEX” (GALERA LABS, LLC, priority 2023, published 2026).

What was measured:
colon of rats = settings: experimental colitis; cited from earlier work
[1] = test system: radiation-induced oral mucositis; settings: hamster; cited from earlier work
radiation damage = settings: adult mice; cited from earlier work
inflammation = settings: rat; cited from earlier work
[2] = test system: collagen-induced arthritis; settings: rat collagen-induced arthritis; cited from earlier work
[3] = test system: acute and sub-chronic radiation damage; platinum therapy kidney damage; settings: mucositis, pulmonary pneumonitis and fibrosis, liver damage; cited from earlier work
established tumors = settings: cited from earlier work

SMILES	injury to the colon (colon of rats)	radiation-induced oral mucositis [1]	radiation damage, lethal total body irradiation (radiation damage)	inflammation (inflammation)	joint disease [2]	overt acute and sub-chronic radiation damage; platinum therapy kidney damage [3]	efficacy of radiation and other therapies (established tumors)
[Cl-].[Cl-].[Mn+2].c1cc2nc(c1)CN[C@@H]1CCCC[C@H]1NCCN[C@@H]1CCCC[C@H]1NC2 [GC4403]	very significantly reduce the injury to the colon of rats	attenuate the radiation damage	attenuate the radiation damage	inhibit inflammation	prevent joint disease	reduce overt acute and sub-chronic radiation damage	enhance the efficacy of radiation and other therapies
CCC(=O)[O-].CCC(=O)[O-].[Mn+2].c1cc2nc(c1)CN[C@H]1CCCC[C@@H]1NCCN[C@H]1CCCC[C@@H]1NC2 [GC4711]						reduce overt acute and sub-chronic radiation damage	enhance the efficacy of radiation and other therapies
